# Tests used:
# [1] = PrestoBlue viability assay; type: cell-based, Human; settings: human, MCF7 breast cancer cells, read-out: reduction of MCF7 cell viability
# Description: (§1) The inventors sought to evaluate whether mDIVI-1-induced inhibition of DRP1 has repercussion on the viability of MCF7 cells. […] Similar results were obtained using the Bradford assay, which measures protein content, as an indicator of cell viability.
# (§2) CELL CULTURE: Human MCF7 breast cancer cells were purchased from ATCC and maintained in complete media: DMEM (D6546, Sigma) supplemented with 10% fetal bovine serum (F7524, Sigma), 100 units/ml of penicillin, 100 μg/ml, streptomycin (P0781, Sigma) and 1% Glutamax (#35050087, Life Technologies). For all experiments, cells were incubated in a 5% CO2 atmosphere at 37° C.
# (§3) PRESTOBLUE VIABILITY ASSAY: Cell viability was measured using the resazurin-based PrestoBlue reagent (A-13261, ThermoFisher Scientific). Briefly, 5×10^3 MCF7 cells were seeded into 96-well black plates. When cells were attached mDIVI-1 or vehicle were added to the cells. After 2 or 5 days, PrestoBlue reagent was added to the cells and incubated for 2 hours. Plates were finally read using a FluoStar Omega plate reader (BMG Labtech) at an excitation wavelength of 544 and an emission wavelength of 590 nm. Background measurements were subtracted from all values.
# MCF7 cells [2] = assay: PrestoBlue viability assay; type: cell-based, Human; settings: 10 μM, 48 hours
# Description: as §1, §2, §3
# MCF7 cells [3] = assay: Reactive oxygen species (CM-H2DCFDA, flow cytometry); type: cell-based, Human
# Excerpt: Inhibition of the mitochondrial fission impacts on other mitochondrial processes, such as mitochondrial metabolism and general and mitochondrial oxidative stress. To confirm, MCF7 cells were stained with MitoSOX and CM-H2DCFDA, and mitochondrial superoxide and total ROS were quantified by flow cytometry. […] Whereas the increase in general ROS goes in line with the increase in mitochondrial content, the boost in the levels of mitochondrial superoxide in mDIV1-treated cells is actually bigger than the observed increased mitochondrial content.
# LEVELS OF REACTIVE OXYGEN SPECIES AND MITOCHONDRIAL SUPEROXIDE: For both assays, 2×10^5 MCF7 cells were seeded in 35 mm plates. […] Reactive oxygen species (ROS) production was measured using CM-H2DCFDA (C6827, Invitrogen). Briefly, cells were incubated for 20 minutes at 37° C. with 1 μM CM-H2DCFDA diluted in PBS and then placed in complete media for 20 minutes at 37° C. in the dark, to render the dye fluorescent, according to the manufacturer. Mitochondrial superoxide was measured using MitoSOX Red Mitochondrial Superoxide Indicator (M36008, ThermoFisher Scientific). […] ROS signal and MitoSOX signal was quantified as mean fluorescent intensity of the viable cell population in a Fortessa flow cytometer (BD Bioscience). Results were analysed using FlowJo software.
# A549 lung cancer cells = assay: Tumorsphere formation assay, A549; type: cell-based
# Description: One of the gold standard techniques for the study and identification of CSCs is the sphere formation assay, an in vitro culture system that enriches for CSCs. Under these anchorage-independent culture conditions, CSCs preferentially form the so-called tumorspheres, whereas more differentiated cells die rapidly.
# TUMORSPHERE FORMATION ASSAY: A single cell suspension was prepared using enzymatic (1× Trypsin-EDTA, T3924, Sigma Aldrich), and manual disaggregation (25 gauge needle). […] After 5 days of culture in a humidified incubator at 37° C., tumorspheres bigger than 50 μm were counted using an eye piece graticule.
# TGFβ signaling = assay: Luciferase reporter assay MCF7-GFP-SMAD(luc); type: cell-based, Human; settings: 50 μM, 2 and 5 days
# Excerpt: Mitochondrial fusion and fission may also have an impact in signaling pathways that regulate stem cell proliferation and survival. […] A range of reporter MCF7-GFP cell lines were generated, including MCF7-GFP-GLI(luc), MCF7-GFP-Rbp/Jk(luc), MCF7-GFP-SMAD(luc) and MCF7-GFP-TCF/LEF(luc), to assess Hedgehog signaling, Notch signaling, TGFβ signaling, and Wnt signaling, respectively. […] The data is shown in the four data plots in FIG. 9.
# LUCIFERASE ASSAY: The Cignal Lenti reporter assay (luc) was used to monitor the activity of several signalling pathways in MCF7-GFP cells as explained previously. Luciferase Assay System (E1501, Promega) was performed according to manufacturer's instructions. 1×10^4 MCF7 […] were seeded in black-walled 96 well plates. When cells were attached, drug treatments were added for 18, 48 hours and 5 days. After treatment, Luciferase Assay was performed according to manufacturer's instructions and light signal was acquired in the Xenogen VivoVision IVIS Lumina. Results were normalized by SRB staining of cells grown in 96-well plates in parallel.
# SULFORHODAMINE B (SRB) ASSAY: SRB (S9012, Sigma) measures total biomass by staining cellular proteins. […] Absorbance was spectrophotometrically measured at 562 nm in a FluoStar Omega plate reader (BMG Labtech). […]
# E-cadherin = assay: Western blotting (immunoblot); type: cell-based, Human; settings: MCF7 cells after mDIVI-1 treatment
# Description: Breast cancer stem cells can exist in distinct states, an mesenchymal-like state and an epithelial-like state, being the first one characterized for its expression of CD24^−/CD44^+, with an mesenchymal-like gene-expression profile and primarily quiescent.
# At the end of the treatment, cells in suspension were spun down and lysed and attached cells were directly lysed in RIPA lysis buffer (R0278, Sigma) containing proteinase inhibitors (05 892 970 001, Roche) and kept at 4° C. for 20 minutes with rotation. Lysates were cleared by centrifugation for 10 minutes at 10,000×g and supernatants were collected. Equal amounts of protein lysate, as determined by using the BCA protein assay kit (23225, Pierce) were diluted in SDS sample buffer and dry-boiled for 5 minutes before being separated by SDS-PAGE using 4-20% gels (456-1094, Biorad). Samples were then blotted onto nitrocellulose membranes (170-4159, Biorad), blocked in 5% milk in TBS-Tween 20 (P9416, Sigma) for 1 hour and probed with antibodies against E-cadherin (ab8995, Abcam) or β-actin (a2228, Sigma). Bound antibodies were detected using a horseradish peroxidase-conjugated secondary antibody (ab6789 and ab6721, Abcam) and signal was obtained using Supersignal West Pico chemiluminiscent substrate (34087, ThermoScientific). Pictures were taken in a ChemiDoc XRS with Image Lab Software (BioRad).
compound,measurement,setting,value
"COc1cc(-n2c(S)nc3ccccc3c2=O)c(Cl)cc1Cl [mDIVI-1, 3-(2,4-Dichloro-5-methoxyphenyl)-2-sulfanyl-4(3H)-quinazolinone]","cytotoxicity at 5 days, 10 μM","[1]; 10 μM, five days",20%
same,"cytotoxicity at 48 h, 50 μM","[1]; 50 μM, 48 hours",20%
same,"cytotoxicity at 5 days, 50 μM","[1]; 50 μM, five days",> 65%
same,"cytotoxicity at 48 h, 100 μM","[1]; 100 μM, 48 hours",20%
same,"cytotoxicity at 5 days, 100 μM","[1]; 100 μM, five days",85%
same,viability of MCF7 cells,MCF7 cells [2],did not decrease
same,production of total ROS,MCF7 cells [3]; 5 days of treatment,slight trend toward an increase
same,general oxidative stress levels,MCF7 cells [3]; after exposure to mDIVI-1,did not change
same,decrease of tumorsphere forming capacity,"A549 lung cancer cells; A549, 10 μM",> 15%
same,decrease of tumorsphere forming capacity,"A549 lung cancer cells; A549, 50 μM",> 80%
same,TGFβ/SMAD pathway luciferase activity,TGFβ signaling,inhibition
same,expression of E-cadherin,E-cadherin,reduction

# Source: patent US11559527B2 (priority 2017, dated 2023)
